Laboratory results taken from the C3SDB collision cross section collection.
Values joined by “and” are separate entries in the source; they are usually repeats but may differ in a detail not shown here. Identical values can stand only once.

Tests used:
[1] = instrument: DT, stepped-field
[2] = instrument: TW, calibrated with polyalanine
[3] = instrument: DT, stepped-field; remark: listed apart in the source
[4] = instrument: DT, single field, calibrated with Agilent tune mix (Agilent)
[5] = instrument: DT, stepped-field; remark: listed apart in the source
[6] = instrument: DT, single field, calibrated with Agilent tune mix (Agilent); remark: listed apart in the source
[7] = instrument: TW, calibrated with phosphatidylcholines (ESI+) and phosphatidylethanolamines (ESI-)
[8] = instrument: DT, stepped-field; remark: listed apart in the source
[9] = instrument: DT, single field

## CN1c2c(nc(N)[nH]c2=O)NCC1CNc1ccc(C(=O)N[C@H](CCC(=O)O)C(=O)O)cc1 (some centres not stated) [5-Methyl-THF]
[1]; [M+H]+
  collision cross section (N2): 197.52 Å²
[1]; [M-H]-
  collision cross section (N2): 200.57 Å²

## O=c1nc[nH]c2nc[nH]c12 [Hypoxanthine]
[2]; [M+H]+
  collision cross section (N2): 120 Å²
[3]; [M+H]+
  collision cross section (N2): 135.79 Å²
[3]; [M+Na]+
  collision cross section (N2): 138.88 Å²
[4]; [M+H]+
  collision cross section (N2): 127.1 Å²

## O=c1nc[nH]c2c1ncn2[C@@H]1O[C@H](CO)[C@@H](O)[C@H]1O [Inosine]
[2]; [M+H]+
  collision cross section (N2): 153 Å²
[3]; [M+H]+
  collision cross section (N2): 159.25 Å²
[3]; [M+Na]+
  collision cross section (N2): 175.37 Å²
[4]; [M+Na]+
  collision cross section (N2): 170.7 Å²

## CCCCCCCCCCCCCCCC(=O)O[C@H](CO)COP(=O)(O)O [LPA(16:0)]
[5]; [M-H]-
  collision cross section (N2): 194.5 Å²

## CCCCCC/C=C/CCCCCCCC(=O)OC[C@@H](O)COP(=O)([O-])OCC[N+](C)(C)C [LPC(16:1)]
[6]; [M+HCOO]-
  collision cross section (N2): 231.3 Å²
[5]; [M+H]+
  collision cross section (N2): 227.7 Å²
[7]; [M+H]+
  collision cross section (N2): 223.4 Å²

## CCCCCCC/C=C\CCCCCCCC(=O)OC[C@@H](O)COP(=O)(O)OC[C@@H](O)CO [LPG(17:1)]
[5]; [M-H]-
  collision cross section (N2): 213.5 Å²

## CCCCCCCC/C=C\CCCCCCCC(=O)OC[C@@H](O)COP(=O)(O)OC[C@@H](O)CO [LPG(18:1)]
[5]; [M-H]-
  collision cross section (N2): 217.9 Å² and 216.9 Å²

## CCCCCC/C=C\CCCCCCCC(=O)OC[C@@H](O)COP(=O)(O)O[C@H]1C(O)C(O)C(O)[C@@H](O)C1O (some centres not stated) [LPI(16:1)]
[5]; [M-H]-
  collision cross section (N2): 226.1 Å²

## CCCCCCCCCCCCCCCCCC(=O)OC[C@@H](O)COP(=O)(O)O[C@H]1C(O)C(O)C(O)[C@@H](O)C1O (some centres not stated) [LPI(18:0)]
[6]; [M+H]+
  collision cross section (N2): 244.7 Å²
[6]; [M-H]-
  collision cross section (N2): 236.8 Å²
[5]; [M-H]-
  collision cross section (N2): 236.1 Å²

## OC[C@@H](O)[C@@H](O)[C@H](O)[C@H](O)CO [Mannitol]
[2]; [M+Na]+
  collision cross section (N2): 137 Å²
[8]; [M+Li]+
  collision cross section (N2): 144.5 Å²
[8]; [M+Na]+
  collision cross section (N2): 140.6 Å²

## CCCC/C=C\C/C=C\CCCCCCCC(=O)O[C@H](COC(=O)CCCCCCCCCCCC)COP(=O)([O-])OCC[N+](C)(C)C [PC(14:1/16:1)]
[5]; [M+H]+
  collision cross section (N2): 279.6 Å²

## CCCCCCCCCC/C=C\CCCCCCCCCC(=O)O[C@H](COC(=O)CCCCCCCCCCC)COP(=O)([O-])OCC[N+](C)(C)C [PC(16:0/18:1)]
[5]; [M+H]+
  collision cross section (N2): 291.4 Å² and 299.1 Å²

## CCCCC/C=C\C/C=C\CCCCCCCCCC(=O)O[C@H](COC(=O)CCCCCCCCCCC)COP(=O)([O-])OCC[N+](C)(C)C [PC(16:1/16:1)]
[5]; [M+H]+
  collision cross section (N2): 287.8 Å²
[3]; [M+H]+
  collision cross section (N2): 280.16 Å²
[3]; [M+Na]+
  collision cross section (N2): 286.9 Å²

## CCCCC/C=C\C/C=C\CCCCCCCCCC(=O)O[C@H](COC(=O)CCCCCCCCCCCCC)COP(=O)([O-])OCC[N+](C)(C)C [PC(16:1/18:1)]
[5]; [M+H]+
  collision cross section (N2): 295.3 Å² and 295.1 Å²

## CCCC/C=C\CCCCCCCC(=O)OC[C@H](COP(=O)([O-])OCC[N+](C)(C)C)OC(=O)CCCCCCCCCCCCCCCCCCCCC [PC(18:0/18:1)]
[5]; [M+H]+
  collision cross section (N2): 306.1 Å² and 306 Å²

## CCCCC/C=C\C/C=C\CCCCCCCCCCCC(=O)O[C@H](COC(=O)CCCCCCCCCCCCC)COP(=O)([O-])OCC[N+](C)(C)C [PC(18:1/18:1)]
[5]; [M+H]+
  collision cross section (N2): 302.7 Å² and 302.8 Å²
[3]; [M+H]+
  collision cross section (N2): 296.42 Å² and 297.29 Å²
[3]; [M+Na]+
  collision cross section (N2): 298.03 Å² and 300.74 Å²

## CCCCCC/C=C\CCCCCCCCCC(=O)O[C@H](COC(=O)CCCCCCC/C=C\CCCCCCCC)COP(=O)([O-])OCC[N+](C)(C)C [PC(36:2)]
[9]; [M+H]+
  collision cross section (N2): 288.83 Å² and 290.58 Å²
[9]; [M+Na]+
  collision cross section (N2): 293.18 Å²
[6]; [M+HCOO]-
  collision cross section (N2): 291 Å²
[6]; [M+H]+
  collision cross section (N2): 291.3 Å²
[6]; [M+Na]+
  collision cross section (N2): 295.1 Å²
[5]; [M+H]+
  collision cross section (N2): 303.1 Å²
[7]; [M+CH3COO]-
  collision cross section (N2): 293.3 Å²
[7]; [M+H]+
  collision cross section (N2): 288.5 Å²

## CCCCC/C=C\C/C=C\CCCCCCCC(=O)OC[C@H](COP(=O)([O-])OCC[N+](C)(C)C)OC(=O)CCCCCCCCC/C=C\CCCCCC [PC(36:3)]
[6]; [M+HCOO]-
  collision cross section (N2): 289.4 Å²
[6]; [M+H]+
  collision cross section (N2): 288.8 Å²
[6]; [M+Na]+
  collision cross section (N2): 291.9 Å²
[5]; [M+H]+
  collision cross section (N2): 295.8 Å²
[7]; [M+CH3COO]-
  collision cross section (N2): 291.6 Å²
[7]; [M+H]+
  collision cross section (N2): 285.5 Å²
